Where a name gives a salt, the structure may show the parent alone.
Key:
[1] = biological target: T1, human NK2 receptor expressed in Mouse Erythroleukemia (MEL) cells (Homo sapiens, UniProt P21452); assay: Neurokinin A (NKA) Receptor-binding Assay (Test A)
T1 construct: expressed in transfected cells; host or cells: Mouse Erythroleukemia (MEL) cells
T1 sequence (P21452 1-398): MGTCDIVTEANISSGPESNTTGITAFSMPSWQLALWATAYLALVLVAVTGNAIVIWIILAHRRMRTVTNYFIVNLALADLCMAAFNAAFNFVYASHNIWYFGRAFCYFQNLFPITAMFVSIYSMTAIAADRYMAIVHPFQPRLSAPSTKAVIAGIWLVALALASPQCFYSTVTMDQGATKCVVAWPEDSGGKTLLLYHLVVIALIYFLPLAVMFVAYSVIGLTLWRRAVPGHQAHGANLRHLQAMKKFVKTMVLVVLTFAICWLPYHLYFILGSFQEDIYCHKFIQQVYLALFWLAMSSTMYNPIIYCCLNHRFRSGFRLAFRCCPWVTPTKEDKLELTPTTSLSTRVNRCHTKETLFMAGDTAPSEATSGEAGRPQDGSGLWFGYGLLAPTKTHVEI
Description: Neurokinin A (NKA) Receptor-binding Assay (Test A)

guinea pig trachea = assay: Guinea Pig Assay (Test B): functional assay in guinea pig trachea, antagonism of agonist NKA or [b-ala^8]-NKA(4-10); format: cell-based; conditions: Cavia porcellus, read-out: pKB in Test B (converted)
Description: Guinea Pig Assay (Test B)

## OC1(c2ccccc2)CCN(CCC(Cn2ccnc2-c2ccccc2)c2ccc(Cl)c(Cl)c2)CC1 (centres unmarked) [Example 2, 1-[3-(3,4-Dichlorophenyl)-4-(2-phenylimidazol-1-yl)butyl]-4-hydroxy-4-phenylpiperidine dihydrochloride]
[1]
  Ki: 23 nM

## O=C1NCCCN1C1CCN(CCC(Cn2cnnc2-c2ccccc2)c2ccc(Cl)c(Cl)c2)CC1 (centres unmarked) [Example 3, 1-[1-[3-(3,4-Dichlorophenyl)-4-(2-phenyl-1,3,4-triazol-1-yl)butyl]piperidin-4-yl]tetrahydropyrimidin-2-one hydrochloride]
Guinea pig trachea
  Kb: 2 nM
